# Assay results from patent publication US12390441B2, “Immunomodulating o-het/aryl azalides” (Zoetis Services LLC, priority 2020, dated 2025).
# Like-named read-outs stand apart in the source and are kept apart here.
# Assays:
# [1] = system: S. aureus (29213 ATCC); experiment: In-vitro MIC model (CLSI broth micro-dilution); assay type: cell-based; details: Staphylococcus aureus, read-out: Comparative MIC
# [2] = system: M. haemolytica; experiment: In-vitro MIC model (CLSI broth micro-dilution); assay type: cell-based, Mannheimia haemolytica; details: for MIC: Mannheimia haemolytica, read-out: Comparative MIC
# [3] = system: P. multocida 46572; experiment: In vivo mouse lung infection challenge model (murine); parameters: species or system CD-1 female mice; details: 46572, sc, 20 mg/kg, 240 h
# Method in brief: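 CD-1 female mice were challenged intranasally with mid-log P. multocida 46572 (target 5×10^2 CFU/mouse), then given 20 mg/kg subcutaneously in buffered (~pH 5.4) propylene glycol/monothioglycerol/water. Mortality was followed to Day 10, analysed by generalized mixed model and survival analysis; harmonized survival is relative to vehicle and positive controls.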
# [4] = system: TNF-α; experiment: Whole blood assay, LPS stimulation, MSD cytokine detection; assay type: cell-based; details: Bos taurus, fresh whole bovine blood
# [5] = system: IL-6; experiment: as above; assay type: cell-based; details: Bos taurus, fresh whole bovine blood
# [6] = system: IL-1β; experiment: as above; assay type: cell-based, bovine; details: fresh whole bovine blood, LPS stimulation; drug concentration giving overstimulation (OS) of IL-1β
# [7] = system: P. multocida; experiment: In-vitro MIC model (CLSI broth micro-dilution); assay type: cell-based, Pasteurella multocida; details: for MIC: Pasteurella multocida, read-out: Comparative MIC
# [8] = system: M. haemolytica (OSU-012103-BHI); details: inhaled or nasal
# [9] = system: P. multocida; experiment: Murine P. multocida intranasal challenge study, survival; assay type: in vivo, mice; details: 5×10^3 CFU/mouse; subcutaneous 18 hours after challenge; tulathromycin 16 mg/kg, M9 32 mg/kg, ceftiofur 9 mg/kg
# [10] = system: H. somni (A700025K); experiment: In-vitro MIC model (CLSI broth micro-dilution); assay type: cell-based, Histophilus somni
# [11] = system: IL-6; experiment: Plasma IL-6 biomarker in bovine M. haemolytica challenge
smiles,measurement,setting,value
"CCCNC[C@]1(O)[C@H](C)O[C@@H](O[C@H]2[C@H](C)[C@@H](O[C@@H]3O[C@H](C)C[C@H](NC)[C@H]3Oc3ccccc3)[C@](C)(O)C[C@@H](C)CN[C@H](C)[C@@H](O)[C@](C)(O)[C@@H](CC)OC(=O)[C@@H]2C)C[C@@]1(C)OC [Example E-112, (2R,3S,4R,5R,8R,10R,11R,12S,13S,14R)-2-ethyl-3,4,10-trihydroxy-13-(((2R,4R,5S,6S)-5-hydroxy-4-methoxy-4,6-dimethyl-5-((propylamino)methyl)tetrahydro-2H-pyran-2-yl)oxy)-3,5,8,10,12,14-hexamethyl-11-(((2S,3R,4S,6R)-6-methyl-4-(methylamino)-3-phenoxytetrahydro-2H-pyran-2-yl)oxy)-1-oxa-6-azacyclopentadecan-15-one]",MIC,[1],> 64 µg/mL
same,MIC,[2]; M. haemolytica 12726,> 64 µg/mL
same,MIC,[2]; M. haemolytica 33396,> 64 µg/mL
same,MIC,"[2]; M. haemolytica 46571, bovine efficacy challenge strain",> 64 µg/mL
same,% Survival,[3],53%
same,IC50,[4],10 µM
same,IC50,[5],40 µM
same,IL-1ß OS of LPS,[6],80 µM
same,MIC,[7]; P. multocida 43137,> 64 µg/mL
same,MIC,"[7]; P. multocida 46572, murine efficacy challenge strain",> 64 µg/mL
same,lung lesion scores,[8]; 0.01 mg/kg,39
same,lung lesion scores,[8]; 0.05 mg/kg,41
same,lung lesion scores,[8]; 0.1 mg/kg,27
CO/N=C(\C(=O)N[C@@H]1C(=O)N2C(C(=O)O)=C(CSC(=O)c3ccco3)CS[C@H]12)c1csc(N)n1 [ceftiofur],Survival at Day 7,[9],~90%
"CCCN1C[C@H](C)[C@@H](O)[C@](C)(O)[C@@H](CC)OC(=O)[C@H](C)[C@@H](O[C@H]2C[C@@](C)(OC)[C@@H](O)[C@H](C)O2)[C@H](C)[C@@H](O[C@@H]2O[C@H](C)C[C@H](N(C)C)[C@H]2O)[C@](C)(O)C[C@H]1C [gamithromycin, reference compound]","MIC, M. haemolytica strains",[2]; screening panel strains,0.5 to 1 µg/mL
same,"MIC, H. somni strains",[10],0.25 to 8 µg/mL
same,"MIC, P. multocida strains",[7]; screening panel strains,1 to 2 µg/mL
"CCCNC[C@]1(O)[C@H](C)O[C@@H](O[C@H]2[C@H](C)[C@@H](O[C@@H]3O[C@H](C)C[C@H](N(C)C)[C@H]3O)[C@](C)(O)C[C@@H](C)CN[C@H](C)[C@@H](O)[C@](C)(O)[C@@H](CC)OC(=O)[C@@H]2C)C[C@@]1(C)OC [tulathromycin, (2R,3S,4R,5R,8R,10R,11R,12S,13S,14R)-11-(((2S,3R,4S,6R)-4-(dimethylamino)-3-hydroxy-6-methyltetrahydro-2H-pyran-2-yl)oxy)-2-ethyl-3,4,10-trihydroxy-13-(((2R,4R,5S,6S)-5-hydroxy-4-methoxy-4,6-dimethyl-5-((propylamino)methyl)tetrahydro-2H-pyran-2-yl)oxy)-3,5,8,10,12,14-hexamethyl-1-oxa-6-azacyclopentadecan-15-one]",IL-6 levels,[11],significantly reduced
same,Survival at Day 7,[9],about 80%
